Patent US20110009376A1, “PROPHYLACTIC OR THERAPEUTIC AGENT FOR EYE DISEASE ACCOMPANIED BY OPTIC NERVE DISORDER” (priority 2008, published 2011)

Tests used:
chick retinal cells = chick retinal cells in an embryonic stage; cited from earlier work
[1] = system: cells in the retinal ganglion cell layer; experiment: Rat model of ischemia/reperfusion-induced retinal damage; format: in vivo; details: oral, twice daily for 12 days, eyes taken 7 days after ischemia/reperfusion
Method: The usefulness of Ebselen against retinal ischemia/reperfusion damage was evaluated using a rat model of ischemia/reperfusion-induced retinal damage (Ophthalmologica. 1991; 203: 138-147) as a model for studying an effect on retinal damage induced by ischemia/reperfusion.
A 1% (w/v) atropine sulfate hydrate ophthalmic solution (manufactured by Nihon Tenganyaku, Co. Ltd., product name: Nitten ATROPINE Ophthalmic Solution 1%) was instilled into the eye of a rat (Slc:SD, male, about 7 weeks old) to cause mydriasis, and general anesthesia was induced by allowing the rat to inhale a gas obtained by vaporizing 3% (v/v) halothane (manufactured by Takeda Pharmaceutical Company Limited., product name: Fluothane) by a mixed gas (2 L/min) of 100% (v/v) oxygen (0.5 L/min) and 100% (v/v) nitrous oxide (1.5 L/min), and the anesthesia was maintained under conditions of 1% (v/v) halothane. […] From the 8 sections, 3 sections were arbitrarily selected, and with respect to the selected sections, a photograph of the retina in the range of from 1 to 1.5 mm on the left or right side from the optic nerve head was taken, and the number of cells in the retinal ganglion cell layer was measured. […]

GCLM = experiment: Induction of gene expression in rat fetus-derived retinal neuron culture system (quantitative PCR); format: cell-based; details: mean ± standard deviation, normalized to GAPDH
Method: (§1) Test 1: Study of Ability to Induce Expression of Genes of Phase II Xenobiotic Metabolizing Enzyme and Antioxidant Enzyme using Rat Fetus-Derived Retinal Neuron Culture System
(§2) The ability of Ebselen to induce the expression of genes of a phase II xenobiotic metabolizing enzyme and an antioxidant enzyme was evaluated using a rat fetus-derived retinal neuron culture system (Brain Res. 2003; 967: 257-66) Incidentally, the rat fetus-derived retinal neuron culture system has been extensively used as a technique for culturing retinal neurons and has been widely used as one of the tools for studying optic nerve diseases such as glaucoma.
(§3) Retinal neurons of a rat fetus (Slc:Wistar/ST, 18 days old) were isolated and seeded onto a polyethyleneimine-coated plastic coverslip. Then, the cells were cultured for 3 days in an Eagle's minimum essential medium supplemented with 10% fetal bovine serum. Thereafter, a solvent (0.1% ethanol) or Ebselen was added thereto to give a final concentration of 25 μM, and the cells were incubated in the culture medium. Incidentally, the culture was performed under the conditions of 37° C. and 5% CO2. The culture medium was removed at each time point of 4, 8, or 12 hours after initiation of incubation. A mixed solution was prepared by adding 1% (v/v) β-mercaptoethanol (manufactured by BioRad, Cat No. 161-0710) to Buffer RLT attached to RNeasy Mini Kit (250) (manufactured by QIAGEN, Cat No. 74106), and the retinal neurons on the plastic coverslip were lysed with the thus prepared mixed solution. The total RNA was extracted from the resulting cell lysate according to the protocol attached to the RNeasy Mini Kit (250), and cDNA was synthesized using ExScript™ RT reagent Kit (manufactured by TAKARA, Cat No. RR035B). According to the protocol attached to SYBR Premix Ex Taq (Perfect Real Time) (manufactured by TAKARA, Cat No. RR041B), SYBR Premix Ex Taq (Perfect Real Time), ROX Reference Dye, the synthesized cDNA, and each primer pair of glyceraldehyde-3-phosphate dehydrogenase (hereinafter also referred to as “GAPDH”), GCLM, TRxR, HO-1, or NQO-1 (manufactured by Nihon Gene Research Laboratories Inc.) were mixed, and PCR reaction was performed using a quantitative PCR system (manufactured by Applied Biosystems, system name: ABI PRISM 7000), and the expression level of each of the genes of GAPDH, GCLM, TRxR, HO-1, and NQO-1 was measured. From the obtained results, a relative expression level of each target gene was calculated by normalizing the expression level of each target gene with the expression level of GAPDH which is a housekeeping gene according to the equation 1. Further, an induction ratio (%) of each target gene to the vehicle group was obtained by dividing the value of the expression level of each gene in the 25 μM Ebselen group by a mean value of the expression level of the same gene in the vehicle group according to the equation 2. Each data was shown as the mean±standard deviation of three independent experiments.
(§4) Relative expression level of each target gene=(Expression level of each gene/Expression level of GAPDH) [Equation 1]
(§5) Induction ratio of each target gene to vehicle group (%)=(Expression level of each gene in 25 μM Ebselen group/Expression level of each gene in vehicle group) [Equation 2]

TRxR = experiment: as above; format: cell-based; details: mean ± standard deviation, normalized to GAPDH
Method: as §1, §2, §3, §4, §5

HO-1 = experiment: as above; format: cell-based; details: mean ± standard deviation, normalized to GAPDH
Method: as §1, §2, §3, §4, §5

NQO-1 = experiment: as above; format: cell-based; details: mean ± standard deviation, normalized to GAPDH
Method: as §1, §2, §3, §4, §5

[2] = system: photoreceptor cells (visual cells); details: ischemia/reperfusion rabbit model; cited from earlier work

O=c1c2ccccc2[se]n1-c1ccccc1 [Ebselen, 2-phenyl-1,2-benzisoselenazol-3(2H)-one]
Effect on cell death caused by glutamate excitotoxicity (chick retinal cells): inhibited the cell death caused by glutamate excitotoxicity
Suppression ratio against decrease in the number of cells in retinal ganglion cell layer ([1]; 3 mg/kg/day): 38.0%
Suppression ratio against decrease in the number of cells in retinal ganglion cell layer ([1]; 30 mg/kg/day): 59.7%
Induction ratio of expression of GCLM gene in 25 μM Ebselen group to vehicle group (GCLM; after 4 hours): 198 ± 18%
Induction ratio of expression of GCLM gene in 25 μM Ebselen group to vehicle group (GCLM; after 8 hours): 194 ± 14%
Induction ratio of expression of GCLM gene in 25 μM Ebselen group to vehicle group (GCLM; after 12 hours): 172 ± 13%
Induction ratio of expression of TRxR gene in 25 μM Ebselen group to vehicle group (TRxR; after 4 hours): 225 ± 11%
Induction ratio of expression of TRxR gene in 25 μM Ebselen group to vehicle group (TRxR; after 8 hours): 193 ± 13%
Induction ratio of expression of TRxR gene in 25 μM Ebselen group to vehicle group (TRxR; after 12 hours): 301 ± 26%
Induction ratio of expression of HO-1 gene in 25 μM Ebselen group to vehicle group (HO-1; after 4 hours): 1263 ± 365%
Induction ratio of expression of HO-1 gene in 25 μM Ebselen group to vehicle group (HO-1; after 8 hours): 1458 ± 307%
Induction ratio of expression of HO-1 gene in 25 μM Ebselen group to vehicle group (HO-1; after 12 hours): 1311 ± 237%
Induction ratio of expression of NQO-1 gene in 25 μM Ebselen group to vehicle group (NQO-1; after 4 hours): 450 ± 74%
Induction ratio of expression of NQO-1 gene in 25 μM Ebselen group to vehicle group (NQO-1; after 8 hours): 937 ± 183%
Induction ratio of expression of NQO-1 gene in 25 μM Ebselen group to vehicle group (NQO-1; after 12 hours): 1266 ± 212%
Effect on b-wave of the electroretinogram (ERG) after ischemia/reperfusion [2]: attenuated the reduction of the b-wave
